Source: US9492422B2, “Therapeutic or prophylactic agent for diabetes” (Toray Industries, Inc., priority 2009, dated 2016)
Counter-ions that a name gives are not always drawn.

Tests used:
Format in all cases: in vivo
KKAy mice [1] = assay: Casual blood glucose level before and after drug administration in KKAy mice; details: male KKAy mice; for Casual blood glucose level, After administration: about 18 hours after final administration; for Casual blood glucose level, After administration / Casual blood glucose level, Before administration: mean ± standard error; for Casual blood glucose level, Before administration: baseline, day before start of dosing
Excerpt: (§1) For the experiment, male KKAy mice (CLEA Japan, Inc.) were used. KKAy mice show obesity and high blood glucose from 7 or 8 weeks old, and are commonly used as model mice for type 2 diabetes. The KKAy mice were purchased when they were 5 weeks old, and, from immediately thereafter, fed with CMF feed (Oriental Yeast Co., Ltd.) for 3 weeks under free food/water intake conditions, before being subjected to the experiment. For continuous subcutaneous administration of a solvent (physiological saline, 6 μL/day) or BPS (1 mg/kg/day, commercially available product from Toray Industries, Inc.), a minipump for sustained release (Alzet micro osmotic pump model 1002, Alzet osmotic pumps company) was subcutaneously placed in each KKAy mouse. The continuous administration of physiological saline or BPS was carried out until the end of the experiment. From 3 days after the placement (beginning of the subcutaneous continuous administration), oral administration of a solvent (0.5% methyl cellulose (MC) solution, 10 mL/kg) or pioglitazone hydrochloride (product synthesized in Toray Industries, Inc.) was started. Pioglitazone hydrochloride was administered as a suspension in 0.5% MC solution. The 0.5% MC solution and pioglitazone hydrochloride were administered for 10 days, during which the administration was carried out once per day in the evening. The mice were divided into the following experimental groups: • (1) Control group (n=8): physiological saline (6 μL/day)+0.5% MC solution (10 mL/kg) • (2) BPS group (n=6): BPS (1 mg/kg/day)+0.5% MC solution (10 mL/kg) • (3) Pioglitazone hydrochloride 3 mg group (n=6): physiological saline (6 μL/day)+pioglitazone hydrochloride (3 mg/kg) • (4) BPS/pioglitazone hydrochloride 3 mg-combined-use group (n=6): BPS (1 mg/kg/day)+pioglitazone hydrochloride (3 mg/kg) • (5) Pioglitazone hydrochloride 30 mg group (n=6): physiological saline (6 μL/day)+pioglitazone hydrochloride (30 mg/kg).
(§2) The body weight and the casual blood glucose level were measured on the day before starting of the continuous administration of physiological saline or BPS (these correspond to the data shown in the “Before administration” columns in Tables 1 and 2). The body weight was measured when 0.5% MC solution or pioglitazone hydrochloride was finally administered, and the casual blood glucose level was measured about 18 hours after the final administration (these correspond to the data shown in the “After administration” columns in Tables 1 and 2). The casual blood glucose level was measured by collecting about 5 μL of blood from the tail vein and subjecting the blood to measurement with a simplified blood glucose meter (Medisense Precision Xceed, ABBOTT JAPAN Co., LTD.).

[2] = Body weight before and after drug administration in KKAy mice; details: male KKAy mice; for Body weight, After administration: at final administration; for Body weight, After administration / Body weight, Before administration: mean ± standard error; for Body weight, Before administration: baseline, day before start of dosing; for Change in body weight compared to the value before drug administration: paired t-test
Excerpt: as §1, §2

KKAy mice [3] = assay: Glucose tolerance test after drug administration in KKAy mice; details: male KKAy mice; for ΔAUC0-120 (area under the Δblood glucose level-time curve, 0 to 120 minutes): oral glucose 1.5 g/kg after fasting, mean ± standard error, in mg·min/dL (unit assumed)
Method: For the experiment, male KKAy mice (CLEA Japan, Inc.) were used. […] Pioglitazone hydrochloride was administered as a suspension in 0.5% MC solution. […] The continuous administration of physiological saline or BPS was carried out until the end of the experiment. The experimental groups were as follows: • (1) Control group (n=6): physiological saline (6 μL/day)+0.5% MC solution (10 mL/kg) • (2) BPS group (n=5): BPS (1 mg/kg/day)+0.5% MC solution (10 mL/kg) • (3) Pioglitazone hydrochloride 3 mg group (n=5): physiological saline (6 μL/day)+pioglitazone hydrochloride (3 mg/kg) • (4) BPS/pioglitazone hydrochloride 3 mg-combined-use group (n=6): BPS (1 mg/kg/day)+pioglitazone hydrochloride (3 mg/kg) • (5) Pioglitazone hydrochloride 30 mg group (n=6): physiological saline (6 μL/day)+pioglitazone hydrochloride (30 mg/kg). […] The increase in the blood glucose level at each timing relative to the blood glucose level observed immediately before the administration of glucose (0 minute) was defined as Δblood glucose level. The length of time (minutes) after the administration of glucose was plotted along the abscissa and Δblood glucose level (mg/dL) was plotted along the ordinate, to calculate the area under the Δblood glucose level-time curve from 0 minute to 120 minutes (ΔAUC0-120).

[4] = BPS 1 mg/kg/day s.c. continuous and/or pioglitazone hydrochloride 3 mg/kg p.o. once daily 10 days
[5] = groups BPS 1 mg/kg/day s.c. continuous and/or pioglitazone hydrochloride 3 mg/kg p.o.
[6] = BPS 1 mg/kg/day s.c. continuous and/or pioglitazone hydrochloride 3 mg/kg p.o. once daily 20 days
[7] = pioglitazone hydrochloride 30 mg/kg group
[8] = pioglitazone hydrochloride 30 mg/kg p.o. once daily 10 days

Compound	Change in casual blood glucose level compared to the value before drug administration (KKAy mice [1]; BPS 1 mg/kg/day s.c. and/or pioglitazone hydrochloride 3 mg/kg p.o., paired t-test)	Casual blood glucose level, After administration (KKAy mice [1]; [4])	Casual blood glucose level, Before administration (KKAy mice [1]; [5])	Body weight, After administration [2, 4]	Body weight, Before administration [2, 5]	Change in ΔAUC0-120 compared to the control group (KKAy mice [3]; glucose tolerance test, BPS 1 mg/kg/day s.c. and/or pioglitazone hydrochloride 3 mg/kg p.o.)	ΔAUC0-120 (area under the Δblood glucose level-time curve, 0 to 120 minutes) (KKAy mice [3]; [6])	Casual blood glucose level, Before administration (KKAy mice [1]; [7])	Casual blood glucose level, After administration (KKAy mice [1]; [8])	Change in body weight compared to the value before drug administration ([2]; BPS 1 mg/kg/day s.c. and/or pioglitazone hydrochloride 3 mg/kg p.o.)	Body weight, Before administration [2, 7]	Body weight, After administration [2, 8]	Change in body weight compared to the value before drug administration ([2]; pioglitazone hydrochloride 30 mg/kg p.o.)	ΔAUC0-120 (area under the Δblood glucose level-time curve, 0 to 120 minutes) (KKAy mice [3]; pioglitazone hydrochloride 30 mg/kg p.o. once daily 20 days)
CC#CCC(C)[C@H](O)/C=C/[C@@H]1[C@H]2c3cccc(CCCC(=O)O)c3O[C@H]2C[C@H]1O (mixture of isomers) [BPS, beraprost sodium]	no change	392.3 ± 28.9 mg/dL	493.0 ± 35.6 mg/dL	42.3 ± 1.1 g	41.2 ± 0.8 g	no change	18684 ± 3551	–	–	–	–	–	–	–
CCc1ccc(CCOc2ccc(CC3SC(=O)NC3=O)cc2)nc1 (stereo not shown) [Pioglitazone hydrochloride, pioglitazone hydrochloride]	–	452.8 ± 53.4 mg/dL	450.3 ± 15.4 mg/dL	44.2 ± 1.3 g	41.7 ± 1.2 g	–	23138 ± 4870	437.7 ± 21.7 mg/dL	271.3 ± 16.9 mg/dL	significant increase	42.6 ± 1.1 g	46.7 ± 1.3 g	significant increase	22461 ± 2157
